Results on five compounds are retold here after ChEMBL document CHEMBL1201862, “PubChem BioAssay data set” (2004).

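All cell lines were grown in 96-well plates and treated with compound for 48 hours. GI50: concentration for 50% inhibition of growth.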 Calls of active or inactive are those of the source. No stated cut-off is given here; in the data, active = GI50 up to about 1.1 µM and inactive = higher. Bounds are passed on as bounds.

Test systems include OVCAR-4; NCI-H460; MDA-N; LOX IMVI; HT-29; IGROV-1; SF-295; HCC 2998; CAKI-1; M14; HCT-116; KM12; TK-10; OVCAR-8; HOP-92; 786-0; ACHN; MDA-MB-231; UACC-62; T47D.
Common to all, as to experiment: inhibition of tumour cell growth, NCI panel, 48 h

Take `CCOC(=O)Nc1cc2c(c(N)n1)N=C(c1ccccc1)CN2`: the GI50 is 28.1 µM (inactive) in the assay with OVCAR-4; < 0.01 µM (active) with NCI-H460; < 0.01 µM (active) in the assay with MDA-N; < 0.01 µM (active) with LOX IMVI; < 0.01 µM (active) in the assay on HT-29; < 0.01 µM (active) with IGROV-1. In addition, the GI50 with SF-295, in the assay on HCC 2998, in the assay on CAKI-1, in the assay with M14, with HCT-116 and in the assay with KM12 was < 0.01 µM (active) in each case. For the same compound, the GI50 is 10.7 µM (inactive) in the assay with TK-10; < 0.01 µM (active) in the assay with OVCAR-8; < 0.01 µM (active) in the assay with HOP-92; < 0.01 µM (active) with 786-0; < 0.01 µM (active) in the assay with ACHN; < 0.01 µM (active) with MDA-MB-231. Besides, the figures for the GI50 in the assay with UACC-62 and in the assay on T47D were < 0.0001 µM (active) and 37.3 µM (inactive), respectively.

Turning to `COc1ccc(/C=C/c2cc(OC)cc(=O)o2)cc1` [YANGONIN], the GI50 in the assay with OVCAR-4 was > 100 µM (inactive); in the assay on NCI-H460, > 100 µM (inactive); in the assay with MDA-N it was 91.6 µM (inactive); with LOX IMVI, > 100 µM (inactive); in the assay with HT-29 it was > 100 µM (inactive); in the assay with IGROV-1, > 100 µM (inactive). The GI50 with SF-295 was 37.2 µM (inactive); in the assay on HCC 2998, > 100 µM (inactive); in the assay on CAKI-1 it was > 100 µM (inactive); with M14 it was 68.4 µM (inactive); in the assay on HCT-116 it was 77.6 µM (inactive); with KM12, 57.4 µM (inactive). In addition, the GI50 was 45.1 µM (inactive) in the assay with TK-10; > 100 µM (inactive) with OVCAR-8; 45.2 µM (inactive) with HOP-92; 36.1 µM (inactive) in the assay with 786-0; 61.7 µM (inactive) in the assay with ACHN; > 100 µM (inactive) with MDA-MB-231. The GI50 in the assay on UACC-62 is 63.1 µM (inactive); with T47D it was > 100 µM (inactive).

`NCc1ccccc1.O=C(O)NCc1ccccc1`: the GI50 in the assay with OVCAR-4 is 25.1 µM (inactive); in the assay on NCI-H460, 26.5 µM (inactive); in the assay on MDA-N it was 29.5 µM (inactive); in the assay on LOX IMVI, 30.3 µM (inactive); in the assay with HT-29, 27.7 µM (inactive); in the assay on IGROV-1, 26.1 µM (inactive). In addition, the GI50 in the assay with SF-295 was 31.2 µM (inactive); in the assay on HCC 2998 it was 22.5 µM (inactive); in the assay on CAKI-1, 42.7 µM (inactive); in the assay on M14, 33.9 µM (inactive); in the assay on HCT-116, 25.1 µM (inactive); in the assay with KM12 it was 26.2 µM (inactive). Moreover, the GI50 with TK-10 was 31.4 µM (inactive); in the assay with OVCAR-8, 37.1 µM (inactive); in the assay on HOP-92 it was 19.6 µM (inactive); in the assay with 786-0 it was 36.3 µM (inactive); in the assay on ACHN, 35.9 µM (inactive); in the assay on MDA-MB-231, 10.3 µM (inactive). The GI50 in the assay with UACC-62 was 15.1 µM (inactive); in the assay on T47D, 23.9 µM (inactive).

As to `Cc1c(C#N)c2nnn(-c3ccc([N+](=O)[O-])cc3)c(=O)n2c1-c1ccccc1`, the GI50 is 8.04 µM (inactive) in the assay with OVCAR-4; 5.86 µM (inactive) in the assay on NCI-H460; 10.2 µM (inactive) in the assay with MDA-N; 10.3 µM (inactive) with LOX IMVI; 8.53 µM (inactive) in the assay with HT-29; 15.3 µM (inactive) with IGROV-1. Also, the GI50 in the assay on SF-295 was 3.57 µM (inactive); in the assay with HCC 2998, 7.43 µM (inactive); with CAKI-1 it was 12.1 µM (inactive); with M14 it was 11.4 µM (inactive); in the assay on HCT-116, 6.62 µM (inactive); with KM12, 5.6 µM (inactive). In addition, the GI50 in the assay on TK-10 is 20 µM (inactive); with OVCAR-8 it was 10.7 µM (inactive); with HOP-92 it was 8.05 µM (inactive); in the assay on 786-0, 12.2 µM (inactive); with ACHN, 4.95 µM (inactive); with MDA-MB-231, 17.3 µM (inactive). Moreover, the GI50 in the assay with UACC-62 was 6.19 µM (inactive); in the assay on T47D, 3.49 µM (inactive).

Consider `COC(=O)c1ccc2n1C1CC3CC(CC2C3)C1`, for which the GI50 in the assay on OVCAR-4 is > 100 µM (inactive); with NCI-H460 it was > 100 µM (inactive); in the assay with MDA-N it was > 100 µM (inactive); with LOX IMVI, > 100 µM (inactive); with HT-29 it was 31.5 µM (inactive); in the assay with IGROV-1, > 100 µM (inactive). Further, the GI50 with SF-295 is > 100 µM (inactive); in the assay on HCC 2998 it was 91.2 µM (inactive); in the assay on CAKI-1, > 100 µM (inactive); in the assay with M14 it was > 100 µM (inactive); in the assay with HCT-116, 42.6 µM (inactive); in the assay on KM12, > 100 µM (inactive). For the same compound, the GI50 was > 100 µM (inactive) with TK-10; > 100 µM (inactive) in the assay on OVCAR-8; 24.8 µM (inactive) with HOP-92; > 100 µM (inactive) with 786-0; > 100 µM (inactive) with ACHN; > 100 µM (inactive) in the assay on MDA-MB-231. In addition, the GI50 in the assay with UACC-62 is 41.2 µM (inactive); with T47D it was 53.6 µM (inactive).
